This is an account of results in patent US20190055267A1, “ORGANOTRIFLUOROBORATE MIMICS OF AMINO ACIDS AND USES THEREOF” (The United States of America, as represented by the …, priority 2015, published 2019).

The nature of data set [1]: Solvolysis of the BF3 moiety in phosphate buffer. Type of data set: physicochemical. The conditions noted are these: for t1/2/min: half-life in phosphate buffer at pH 7.4; for pKB-F: pK of the first fluorine of the BF3− moiety; for k (solv)/min^−1: rate of solvolysis, phosphate buffer pH 7.4. The source says:
See also, Liu et al., Chem. Eur. J., 2015, 21:3924-8, incorporated herein by reference in its entirety.

The conditions of data set [2]: COOH group of the corresponding amino acid; cited from earlier work.
The next data set relates to UM22B cells. In words: Competitive inhibition assay of 18F-Leu-BF3 uptake. The format is cell-based. The conditions noted are these: 60 min incubation. As for the experimental part:
To study the specificity of BAA transportation, a competitive inhibition assay was performed using UM22B cells in the presence of natural amino acid and transporter inhibitor.

For a further data set, the system named is U87MG cells. Kind of data set: In vitro competitive inhibition of boramino acid uptake by natural amino acids and transporter inhibitors. Set-up: inhibition: dose or concentration left out as unconfirmed. The conditions noted are these: for inhibition / inhibition at 25000 µM: Homo sapiens, U-87 MG, 1 h; for inhibition: read-out: inhibition of uptake of 18F-Leu-BF3.

For data set [3], the system named is amino acid transporters. The conditions noted are these: natural amino acid, comparison value; read-out: KM/μM, AA; cited from earlier work.
Data set [4] concerns amino acid transporters. Kind of data set: Uptake-concentration kinetics, Michaelis-Menten fitting, in U87MG cells. The format is cell-based, human. The conditions noted are these: 60 min at 37° C. in PBS, read-out: KM/μM, ^18F-AA-BF3 (BAA). As for the experimental part:
The uptake of BAA in U87MG cells was measured at increasing concentrations in phosphate-buffered saline (PBS) and plotted against the concentration of BAA. […] The KM values of ^18F-BAAs were calculated by Michaelis-Menten fitting using Igor Pro 6.22.
The uptake-concentration correlations (FIGS. 12-15) fit well with Michaelis-Menten kinetics, giving the values of Table 4.

Another data set has as its system UM22B xenograft. Kind of data set: PET imaging and biodistribution in UM22B tumor-bearing mice. The format is in vivo. As for the experimental part: All imaging studies were performed as follows. PET scans were obtained and image analysis were performed using an Inveon small-animal PET scanner (Malvern, Pa., USA). About 3.7 MBq of ^18F-AA were administered via tail vein injection under isoflurane anesthesia. […] For dynamic acquisition, 60 min dynamic PET scans were acquired, followed by a late-time-point scans at 2 h after tracer injection. With the acute inflammation model, 10-min static PET images were acquired at 1 h and 2 h after injection. The images were reconstructed using a 3-dimensional ordered subset expectation maximum algorithm, and no correction was applied for attenuation or scatter. For each scan, regions of interest (ROIs) were drawn using vendor software (ASI Pro 5.2.4.0; Siemens Medical Solutions) on decay-corrected whole-body coronal images. The radioactivity concentrations (accumulation) within the tumor, heart, muscle, liver, brain, and kidneys were obtained from mean pixel values within the multiple ROI volumes and then converted to megabecquerel per milliliter. These values were then divided by the administered activity to obtain (assuming a tissue density of 1 g/mL) an image-ROI-derived percentage injected dose per gram (% ID/g).

The subject of a further data set is system P transporters. The conditions noted are these: read-out: KM value, cited from earlier work.
The test system of a further data set is U87MG human glioma cells. Type of data set: cell-based.
[5] abbreviates: read-out: inhibition of uptake of 18F-Phe-BF3.
Setting [6] is: read-out: inhibition of uptake of 18F-Ala-BF3.
[7] abbreviates: read-out: inhibition of uptake of 18F-Pro-BF3.
The mark [8] stands for this setting: U87MG cells, competitor at 25 mM, 60 min incubation.
[9] abbreviates: UM22B-bearing mice, 120 min after injection.

Where two headings read alike, the source gives them in different places.

For `C[C@H]([NH3+])[B-](F)(F)F` [Ala-BF3], in data set [1], the t1/2/min came out at 2.351 days, the pKB-F is reported as 3.6895 and the “k (solv)/min^−1” value was determined as 0.0002044 min⁻¹. Also, the “pka of corres. COOH” value in [2] is 2.35.

The inhibition is the change of the read-out against control, counted positive when it falls. Consider `NC1(C(=O)O)CC2CCC1C2` (centres unmarked) [BCH, 2-amino-2-norbornanecarboxylic acid], for which the “inhibition of cell uptake of 18F-Leu-BF3” value in the data set on UM22B cells came to 83.0%. In the data set on U87MG cells, the inhibition was determined as 77.4%. In addition, the inhibition at 25000 µM in the data set with U87MG cells (setting [5]) amounted to 72.1%. In the data set with U87MG cells (U87MG cells, BCH with sodium-free medium, 60 min incubation), the “inhibition of uptake of 18F-Leu-BF3” value was found to be 83.0%.

In the case of `C[C@H](N)C(=O)O` [L-Alanine], the Km in the data set with amino acid transporters [3] is 370 µM. The inhibition at 25000 µM with U87MG cells (setting [6]) was approximately 90%; in the data set with U87MG cells (setting [5]), 60.3%. The inhibition with U87MG cells amounted to 38.9%.

As to `N=C(N)NCCC[C@H](N)C(=O)O` [L-Arginine], the results for the inhibition at 25000 µM in the data set with U87MG cells (setting [6]), in the data set on U87MG cells (setting [5]) and in the data set on U87MG cells (setting [7]) were 58.2%, 42.6% and 15.6%, respectively. Moreover, in the data set with U87MG cells, the inhibition worked out at 23%.

Turning to `N[C@@H](CCC(=O)O)C(=O)O` [L-Glutamate], in the data set with U87MG cells (setting [8]), the “inhibition of uptake of 18F-Ala-BF3” value was 50.3%, the “inhibition of uptake of 18F-Phe-BF3” value was found to be 13.0% and the “inhibition of uptake of 18F-Pro-BF3” value stood at 0.2%.

Turning to `CC(C)C[C@H](N)C(=O)O` [L-leucine], the “inhibition of cell uptake of 18F-Leu-BF3” value with UM22B cells stood at 94.7%. In the data set with amino acid transporters [3], the Km was 19.7 ± 2.4 µM. The inhibition in the data set with U87MG cells is approximately 98%.

As for `N[C@@H](Cc1ccccc1)C(=O)O` [L-phenylalanine], the Km in the data set with amino acid transporters [3] was 18.7 ± 4.1 µM. For the same molecule, the inhibition at 25000 µM is 71% in the data set on U87MG cells (setting [6]), approximately 80% in the data set with U87MG cells (setting [5]) and 0.1% with U87MG cells (setting [7]).

`CC(C)C[C@H]([NH3+])[B-](F)(F)F` [Leu-BF3]: in data set [1], the t1/2/min is 2.51 days, the pKB-F is listed as 3.7181 and the “k (solv)/min^−1” value stood at 0.0001914 min⁻¹. In addition, in data set [2], the “pka of corres. COOH” value is 2.33.

In the case of `CNC(C)(C)C(=O)O` [MeAIB, 2-methylaminoisobutyric acid], the inhibition at 25000 µM in the data set on U87MG cells (setting [6]) was determined as 39.3%; in the data set on U87MG cells (setting [5]), 17.6%; in the data set with U87MG cells (setting [7]) it was 39.3%. Moreover, the inhibition in the data set with U87MG cells is 24.5%.

As for `CSCC[C@H]([NH3+])[B-](F)(F)F` [Met-BF3], in data set [1], the t1/2/min is 4.851 days, the pKB-F is given as 4.0041 and the “k (solv)/min^−1” value is 9.906e-05 min⁻¹. Moreover, the “pka of corres. COOH” value in data set [2] was 2.13.

Consider `[NH3+]C(Cc1ccccc1)[B-](F)(F)F` (centres unmarked) [Phe-BF3], for which, in data set [1], the t1/2/min came to 3.852 days, the pKB-F stood at 3.904 and the “k (solv)/min^−1” value is 0.0001247 min⁻¹. Further, in [2], the “pka of corres. COOH” value is reported as 2.2.

For `F[B-](F)(F)[C@@H]1CCC[NH2+]1` [Pro-BF3], in [1], the t1/2/min came out at 8.7743 days, the pKB-F is 4.2615 and the “k (solv)/min^−1” value is 5.476e-05 min⁻¹. Moreover, the “pka of corres. COOH” value in data set [2] is listed as 1.95.

Consider `C[C@H]([NH3+])[B-](F)(F)F` [^18F-Ala-BF3], for which, in the data set on amino acid transporters [4], the Km came out at 468 ± 87.2 µM.

`C[C@H]([NH3+])[B-](F)(F)[18F]` [^18F-Ala-BF3]: the “inhibition of uptake by sodium free medium” value with U87MG cells (U87MG cells, 18F-Ala-BF3, 60 min incubation) is recorded as 91.1%.

As to `CC(C)C[C@H]([NH3+])[B-](F)(F)F` [^18F-Leu-BF3], in the data set on amino acid transporters [4], the Km amounted to 25.9 ± 2.4 µM.

Regarding `[NH3+][C@@H](Cc1ccccc1)[B-](F)(F)F` [^18F-Phe-BF3], in the data set on amino acid transporters [4], the Km was 17.6 ± 4.2 µM.

In the case of `[NH3+][C@@H](Cc1ccccc1)[B-](F)(F)[18F]` [^18F-Phe-BF3], in the data set with UM22B xenograft (PET, tumor-bearing mice), the bone uptake result is listed as “undetectable”. In the data set on UM22B xenograft (setting [9]), the “Average Uptake (% ID/g), blood pool” value was found to be 2.46 ± 0.50 % ID/g; the “Average Uptake (% ID/g), hottest voxel cluster of tumor” value was determined as 13.29 ± 1.18 % ID/g; the “Average Uptake (% ID/g), kidney” value turned out to be 2.13 ± 0.34 % ID/g; the “Average Uptake (% ID/g), liver” value is recorded as 2.67 ± 0.44 % ID/g. Also, in the data set with UM22B xenograft (setting [9]), the “Average Uptake (% ID/g), muscle” value was 2.31 ± 0.44 % ID/g and the “Average Uptake (% ID/g), whole tumor region of interest” value was 7.31 ± 0.78 % ID/g. Besides, the “tumor uptake, peak voxel cluster value” with UM22B xenograft (time-activity curves, UM22B tumor-bearing mice (FIGS. 21 and 22)) was “approximately 15 % ID/g”.

On to `F[B-](F)(F)[C@@H]1CCC[NH2+]1` [^18F-Pro-BF3], for which the Km with amino acid transporters [4] is 65.6 ± 45.2 µM.

Take `F[B-](F)([18F])[C@@H]1CCC[NH2+]1` [^18F-Pro-BF3]: the “inhibition of uptake by sodium free medium” value with U87MG cells (U87MG cells, 18F-Pro-BF3, 60 min incubation) amounted to 76.2%.

Consider `O=C(O)[C@@H]1CCCN1` [proline], for which the Km was 67 ± 11.5 µM in the data set on amino acid transporters [3], approximately 5 mM in the data set on system P transporters (system P transporter with high KM) and approximately 0.1 mM in the data set on system P transporters (system P transporter with low KM). Moreover, the inhibition at 25000 µM in the data set with U87MG cells (setting [7]) is approximately 80%.

As for “^18F-fluorodeoxyglucose [^18F-FDG, reference compound]”, the cell uptake result with U87MG human glioma cells was “less than 5 % AD”.
